From patent US20130023001A1, “USE OF A SUBSTRATE IN A METHOD FOR MEASURING THE ACTIVITY OF PROTEOLYTIC ENZYMES” (priority 2011, published 2013)

Experiments:
Assay type in all cases: biochemical
[1] = system: unfractionated heparin, Calciparine®; assay: evaluation method for heparin neutralization by anti-Xa activity (chromogenic para-nitroaniline substrate) with unfractionated heparin; conditions: for percentage neutralization of Calciparine®, 100×(1−ΔA1/ΔA2): heparin concentrations between 0 and 1.67 IU/ml
Source text: (§1) Before referring to the diagrams of the figures, the evaluation method used to quantify the neutralization of the glycosaminoglycans in a blood sample, and in particular a plasma, will be described. This method makes it possible to use both unfractionated heparins and low-molecular-weight heparins. In addition, the method endeavors to test the activity of factor Xa, located at the crossroads of two enzymatic cascades resulting in the formation of thrombin. Moreover, antithrombin, which is a natural inhibitor of thrombin generation, controls the reaction. As soon as it appears, factor Xa couples to its natural substrate, prothrombin, so as to form thrombin. The heparin contained in the sample forms, itself, a complex with antithrombin, which complex promotes the inhibition of factor Xa.
(§2) Thus, a chromogenic substrate based on para-nitroaniline, which factor Xa hydrolyzes, is used and the release of the para-nitroaniline, which can be measured optically, is then inversely proportional to the concentration of heparin present in the medium. A measurement of the anti-Xa activity is thus deduced therefrom.
In this first example, the heparin used is an unfractionated calcium heparin sold under the brand name: “Calciparine®”. According to the evaluation method, the anti-Xa activity is recorded and transferred onto the y-axis, as a function of the heparin concentration of the medium. The heparin concentrations vary between 0 and 1.67 IU/ml and are relatively close to the therapeutic concentrations. The first inclined curve 10 corresponds to a first series of measurements wherein physiological saline is added to the blood sample in addition to the para-nitroaniline-based substrate, while the second inclined curve 12 corresponds to a second series of measurements wherein a neutralizing synthetic polymer, polybrene, intended to neutralize the anticoagulant effects of the heparin, is added to the blood sample. This compound is well known for its effects on heparin and is usually employed in methods for measuring the activity of proteolytic enzymes in order to actually dispense with the anticoagulant effect of heparin.
(§3) The percentage neutralization by the synthetic polymer is determined as being the ratio of the difference in the variation in anti-Xa activity in the medium containing the physiological saline and in the medium containing the neutralizing agent, between two heparin concentrations, and only the variation in activity in the medium containing the physiological saline, between the same two heparin concentrations, this ratio being multiplied by 100 in order to obtain the result as percentage neutralization.
(§4) The percentage neutralization can also be written more compactly: 100×(1−ΔA1/ΔA2), wherein ΔA1 corresponds to the variation in activity in the presence of neutralizing compound and ΔA2 to the variation in the presence of physiological saline. Thus, the parallel measurement of the variation in the presence of physiological saline makes it possible to establish the reference in each series of measurements.

[2] = system: low-molecular-weight heparin, Fragmine®; assay: evaluation method for heparin neutralization by anti-Xa activity (chromogenic para-nitroaniline substrate) with low-molecular-weight heparin
Source text: as §1, §2, §3, §4
Still in this first part of the description, the abovementioned evaluation method was implemented with a low-molecular-weight heparin, Fragmine®.

thrombin = molecular target: T1, thrombin (Homo sapiens, UniProt P00734); assay: measuring method: thrombin generation fluorescent signal in a blood sample containing heparin
T1 construct: from tissue; host or cells: blood sample (plasma) containing heparin; thrombin generation triggered with tissue factor and calcium
Method: According to one embodiment of the measuring method, the enzymatic activity monitored is that of thrombin generation. The principle lies in the monitoring of the measurement of a fluorescent signal after the enzyme substrate has been brought into contact with a blood sample containing heparin, and the reaction conditions allow the thrombin to cleave the substrate between the peptide part and the fluorophore, in this case rhodamine110.
In order to implement the method, a blood sample of 40 μL containing heparin is first of all introduced into a microcuvette. 10 μL of the enzyme substrate in accordance with the invention mixed with an initiating reagent, and 10 μL of activating reagent are added thereto. The initiating reagent is […] and it has a concentration of 16.7×10^−3 mol.L^−1. The activating reagent is tissue factor at a concentration of 10^−12 mol.L^−1.
Next, an excitation signal having a predetermined wavelength is emitted through the microcuvette and the response to the excitation signal is recorded optically over time. Thus, the greater the amount of thrombin generated, the greater the signal response.
According to one particular embodiment, the enzyme substrate chosen is that corresponding to the embodiment variant V(3) of the first part of the detailed description, and of synthetic formula (R^2−GGR)2-Rhod110. […]

Substance	percentage neutralization of Calciparine®, 100×(1−ΔA1/ΔA2) [1] [%]	percentage neutralization of Fragmine® ([2]; heparin 0.42 IU/ml) [%]	percentage neutralization of Fragmine® ([2]; heparin 0.83 IU/ml) [%]	percentage neutralization of Fragmine® ([2]; heparin 1.25 IU/ml) [%]	percentage neutralization of Fragmine® ([2]; heparin 1.67 IU/ml) [%]	percentage neutralization of Calciparine® ([1]; heparin 0.42 IU/ml) [%]	percentage neutralization of Calciparine® ([1]; heparin 0.83 IU/ml) [%]	percentage neutralization of Calciparine® ([1]; heparin 1.25 IU/ml) [%]	percentage neutralization of Calciparine® ([1]; heparin 1.67 IU/ml) [%]	effect of heparin on the thrombin activity measurement (signal curve with versus without heparin) (thrombin; unfractionated heparin 1.5 IU/ml, FIG. 5)	strength of the thrombin activity signal relative to the series of measurements without heparin (thrombin; heparin 1.5 IU/ml, after 30 minutes, FIG. 7) [%]
(EtM-VR)2-Rhod110 [V(2)]	~100	71	78	79	78						
(R^2GGR)2-Rhod110 [V(3)]		88	90	91	91	90	93	94	96	very small effect	
EtM-VR-Rhod110-Ac [reference compound]											~3
R^2GGR-Rhod110-Benzoic [V(5)]		77	75	75	74	100	97	98	98		
R^2GGR-Rhod110-H [V(4)]		83	83	72	64	96	90	89	80		
R^2GGR-Rhod110-R [V(1)]	~100	64	65	64	72						
